Reference: patent US9717248B2, “Antibacterial micro- and nanoparticles comprising a chlorhexidine salt, method of production and uses thereof” (The University of Bristol, priority 2013, dated 2017)
Like-named read-outs stand apart in the source and are kept apart here.

Tests used:
P aeruginosa = test: Growth of microorganisms on polyurethane specimens; assay type: cell-based, Pseudomonas aeruginosa; set-up: key: −: complete inhibition; +: slight growth (growth observed at dilutions between 10^−1-10^−3); ++: moderate growth (growth observed at dilutions between 10^−4-10^−6); +++: high growth (growth at dilutions between 10^−7-10^−12); settings: 24 h incubation
Excerpt: (§1) Extensive microbiology work has also been completed. […] Key: −complete inhibition; +slight growth (growth observed at dilutions between 10^−1-10^−3); ++ moderate growth (growth observed at dilutions between 10^−4-10^−6); +++ high growth (growth at dilutions between 10^−7-10^−12).

K. pneumoniae = test: Growth of microorganisms on polyurethane specimens; assay type: cell-based, Klebsiella pneumoniae; set-up: key: −: complete inhibition; +: slight growth (growth observed at dilutions between 10^−1-10^−3); ++: moderate growth (growth observed at dilutions between 10^−4-10^−6); +++: high growth (growth at dilutions between 10^−7-10^−12); settings: 24 h incubation
Excerpt: as §1

E. coli = test: Growth of microorganisms on polyurethane specimens; assay type: cell-based, Escherichia coli; set-up: key: −: complete inhibition; +: slight growth (growth observed at dilutions between 10^−1-10^−3); ++: moderate growth (growth observed at dilutions between 10^−4-10^−6); +++: high growth (growth at dilutions between 10^−7-10^−12); settings: 24 h incubation
Excerpt: as §1

MRSA = test: Growth of microorganisms on polyurethane specimens; assay type: cell-based, Staphylococcus aureus; set-up: key: −: complete inhibition; +: slight growth (growth observed at dilutions between 10^−1-10^−3); ++: moderate growth (growth observed at dilutions between 10^−4-10^−6); +++: high growth (growth at dilutions between 10^−7-10^−12); settings: 24 h incubation in bacteria growth medium
Excerpt: as §1

[1] = composite resins supplemented with pulverised CHX diacetate; cited from earlier work
S. mutans [2] = test: Reported MIC for S. mutans; assay type: cell-based; settings: Streptococcus mutans, conversion of the reported 0.125%
S. mutans [3] = settings: reported; cited from earlier work
[4] = Elution of CHX from CHX-HMP functionalised materials (UV spectrophotometry); assay type: physicochemical
Method: 200 mL of the colloidal suspension was prepared using freshly-prepared reagents (to prevent hydrolysis of the HMP). The specimen was immersed in the rapidly stirred colloid for 30 s, then removed and immersed in deionised water for 10 s to rinse, and then blotted to remove excess liquid and allowed to dry in air.
8 specimens of each material coated with CHX-HMP-5 and CHX-HMP-0.5 nanoparticles were placed in individually labelled cuvettes suitable for ultraviolet spectrophotometry. Deionised water was added to the cuvettes and they were sealed tightly using cuvette lids. These were agitated on an orbital shaker rotating at 150 rpm. The cuvettes were kept sealed and were sampled for chlorhexidine concentration at intervals over a 60-90 day period. Control sets were prepared where the specimens were immersed in deionised water and where they were immersed in a 25 μM CHX solution, which is the concentration of aqueous CHX residual in the CHX-HMP-5 colloidal suspension.

[5] = Elution of CHX from functionalised borosilicate glass surfaces (UV spectrophotometry); assay type: physicochemical; settings: coated glass coverslips in deionised water, 14-day period
Method: Chlorhexidine based salts were prepared by combining, at room temperature and under rapid stirring, 100 mL chlorhexidine (as the digluconate salt in aqueous solution at a concentration of 10 mM) and 100 mL of one of a range of anions in aqueous solution, also at an initial concentration of 10 mM, to effect final total concentrations of 5 mM of each. The precipitate was then allowed to adhere on borosilicate glass coverslips. Coverslips (Agar Scientific, Stansted, UK) were cleaned by 10 minutes ultrasonication in acetone followed by 10 minutes ultrasonication in industrial methylated spirits and allowed to air dry. They were immersed in the 200 mL suspension described above while it was rapidly stirred using a magnetic stirring plate. Coverslips were immersed for 30 seconds, removed, immersed in deionised water for 10 seconds to rinse, blotted to remove excess liquid and allowed to dry in air. The elution of soluble CHX from the functionalised glass surfaces was examined using ultraviolet spectrophotometry. 8 specimens of each type were placed in individually labelled cuvettes suitable for ultraviolet spectrophotometry. 2.5 mL deionised water was added to the cuvettes and they were sealed tightly using cuvette lids. These were agitated on an orbital shaker rotating at 150 rpm. […]

[6] = system: Pseudomonas aeruginosa NCIMB 8626 (ATCC 9027); test: Minimum inhibitory concentration, planktonic bacteria; assay type: cell-based; settings: P. aeruginosa, 16 h; value for CHX-HMP-5 is minimum tested
Method: (§2) Methicillin-resistant Staphylococcus aureus (MRSA; NCTC13142) was cultured in Mueller-Hinton media. Pseudomonas aeruginosa NCIMB 8626 (ATCC 9027) was cultured in nutrient broth (NB) or nutrient agar (NA). All cultures were incubated at 37° C. aerobically throughout the study.
(§3) Cultures were incubated for 16 h at 37° C. in aerobic conditions, optical density (CD) readings were measured at 620 nm (A620) using a standard microtitre plate reader (SpectroStar Nano; BMG Labtech).

[7] = system: Methicillin-resistant Staphylococcus aureus (MRSA; NCTC13142); test: as above; assay type: cell-based; settings: 16 h, 37° C., OD 620 nm, listed as 25 μM chlorhexidine
Method: as §2, §3

MRSA biofilm = test: Static biofilm model (crystal violet); assay type: cell-based, Staphylococcus aureus; settings: MRSA 48 h static biofilm, 2 h treatment; word qualifies 'disruption'
Method: (§4) Bacterial strains were initially grown for 16 h and these stationary phase cultures were harvested by centrifugation, and adjusted to OD650=0.1. Biofilms were grown in 50 μL appropriate media at 37° C. for 48 h, aerobically then the media was removed and discarded. Loosely adherent bacteria were removed by washing the biofilms twice with 100 μl PBS. Chlorhexidine or chlorhexidine nanoparticles diluted in PBS were added to the biofilms using a doubling dilution as described above (0-25 μM). The plates were incubated for 2 h at 37° C.; to estimate biomass, unattached cells were gently aspirated and discarded, and adherent cells were washed twice with PBS and stained with crystal violet (0.25% w/v) for 10 min; following a further two washes with PBS, cell-bound crystal violet was re-solubilized with 7% acetic acid, and absorbance measured at 595 nm (A595).

MRSA bacteria = test: Microbiology on EVA samples functionalised with CHX nanoparticles; assay type: cell-based, Staphylococcus aureus; settings: EVA specimens, 18 h incubation in 1 mL growth medium
Method: EVA specimens were functionalised by 30 s immersion in a colloidal suspension of CHX-HMP-5 in water followed by 10 s immersion in deionised water (“low concentration”) or without subsequent immersion in deionised water (“high concentration”). These samples were then exposed to cultures of MRSA bacteria. They were then immersed in 1 mL, growth medium and incubated for 18 h. According to the release experiments in this time the EVA specimen should release around 6 μM per m^2 material. Surface area of the specimen was 0.000182 m^2 so the expected total release should be […] CHX into 1 mL giving a resultant concentration of 1.1 μM CHX.

P. aeruginosa biofilm = test: Static biofilm model (crystal violet); assay type: cell-based, Pseudomonas aeruginosa; settings: P. aeruginosa 48 h static biofilm, 2 h treatment; word qualifies 'disruption'
Method: as §4

[8] = result in words, 'Little or no' continues 'significant release'

N=C(NCCCCCCNC(=N)NC(=N)Nc1ccc(Cl)cc1)NC(=N)Nc1ccc(Cl)cc1 [80 μM CHX, chlorhexidine]
growth of microorganisms on polyurethane specimens (P aeruginosa): ++
growth of microorganisms on polyurethane specimens (K. pneumoniae): ++
growth of microorganisms on polyurethane specimens (E. coli): ++
growth of microorganisms on polyurethane specimens (MRSA): ++

N=C(NCCCCCCNC(=N)NC(=N)Nc1ccc(Cl)cc1)NC(=N)Nc1ccc(Cl)cc1 [CHX diacetate]
time to plateau of CHX release [1]: around 7 days

N=C(NCCCCCCNC(=N)NC(=N)Nc1ccc(Cl)cc1)NC(=N)Nc1ccc(Cl)cc1 [CHX digluconate]
MIC (S. mutans [2]): ~1400 µM
MIC (S. mutans [3]): 0.125 % by mass

N=C(NCCCCCCNC(=N)NC(=N)Nc1ccc(Cl)cc1)NC(=N)Nc1ccc(Cl)cc1 [Comparative Example 4, chlorhexidine]
CHX Release Period [4, 8]: No release

N=C(NCCCCCCNC(=N)NC(=N)Nc1ccc(Cl)cc1)NC(=N)Nc1ccc(Cl)cc1 [Comparative Example 5, chlorhexidine]
CHX Release Period ([4]; functionalised material in deionised water, 60-90 day period): >60 days

N=C(NCCCCCCNC(=N)NC(=N)Nc1ccc(Cl)cc1)NC(=N)Nc1ccc(Cl)cc1 [Comparative Example 6, chlorhexidine]
CHX Release Period [4, 8]: No release

N=C(NCCCCCCNC(=N)NC(=N)Nc1ccc(Cl)cc1)NC(=N)Nc1ccc(Cl)cc1 [Comparative Example 7, chlorhexidine]
CHX Release Period [4, 8]: Little or no

N=C(NCCCCCCNC(=N)NC(=N)Nc1ccc(Cl)cc1)NC(=N)Nc1ccc(Cl)cc1 [compound 2, chlorhexidine]
CHX Release Period [5]: 48 to 72 h

N=C(NCCCCCCNC(=N)NC(=N)Nc1ccc(Cl)cc1)NC(=N)Nc1ccc(Cl)cc1 [compound 8, chlorhexidine]
MIC, soluble CHX conc [6]: P.a.: (25 μM)
MIC, soluble CHX conc [7]: not efficacious
Effect on biofilm (MRSA biofilm): MRSA: slight
recovery of MRSA / efficacy against MRSA (MRSA bacteria): not efficacious
Effect on biofilm (P. aeruginosa biofilm): P.a.: slight
